{"source": "patent US4000259A", "about": "“Cyclic dodecapeptide analogs of somatostatin and intermediates” (American Home Products Corporation, priority 1975, dated 1976)", "key": {"glucagon": {"tested_on": "glucagon", "details": "rats, nembutal 50 mg/kg i.p., compound subcutaneously 3100 μg/kg, blood 15 minutes after injection; control 10.5 ± 2", "method": "(§1) The effect on glucagon, growth hormone and insulin levels of the compound of Example 7 was determined by injecting rats weighing about 200-240 g first with nembutal intraperitoneally at a dose of 50 mg/kg then after 5 minutes injecting the rats subcutaneously with a solution of the compound of Example 7 in saline at a dose of 3.1 mg/kg per rat. Blood samples are taken 15 minutes after injection with the compound of Example 7. The glucagon, growth hormone and insulin levels were determined by radioimmunoassay."}, "growth hormone": {"tested_on": "growth hormone", "experiment": "In vivo effect on growth hormone levels in nembutal-treated rats, radioimmunoassay", "details": "nembutal 50 mg/kg i.p., compound subcutaneously 3100 μg/kg, blood 15 minutes after injection, control 296 ± 25", "method": "as §1"}, "insulin": {"tested_on": "insulin", "experiment": "In vivo effect on insulin levels in nembutal-treated rats, radioimmunoassay", "details": "nembutal 50 mg/kg i.p., compound subcutaneously 3100 μg/kg, blood 15 minutes after injection, control 171 ± 4", "method": "as §1"}}}
{"substance": "L-Lysyl-L-lysyl-L-asparaginyl-L-phenylalanyl-L-phenylalanyl-L-tryptophyl-L-lysyl-L-threonyl-L-phenylalanyl-L-threonyl-L-seryl-L-aspartic acid cyclic (12β→1ε)-peptide, triacetate [Example 7]", "values": [{"measurement": "Glucagon", "setting": "glucagon", "result": 3.3, "unit": "pg/mL"}, {"measurement": "GH", "setting": "growth hormone", "result": "227 ± 32", "unit": "ng/kg"}, {"measurement": "Insulin", "setting": "insulin", "result": "182 ± 16", "unit": "μU/ml"}]}
